According to patent US10538535B2, “Antitumoral compounds” (priority 2017, dated 2020):
Like-named read-outs stand apart in the source and are kept apart here.

Experiments:
H526 tumors = assay: In vivo xenograft, human lung (SCLC) H526; conditions: iv weekly, 32 and ET-736 0.5 mg/Kg
Procedure: Female athymic nu/nu mice (Harlan Laboratories Models, S. L. Barcelona, Spain or Envigo, Spain) were utilized for all experiments. Animal were housed in individually ventilated cages Sealsafe® Plus, Techniplast S.P.A.), up to ten per cage on a 12-hour light-dark cycle at 21-23° C. and 40-60% humidity. Mice were allowed free access to irradiated standard rodent diet (Tecklad 2914C) and sterilized water. Animals were acclimated for at least 5 days prior to tumor implantation with a tumor cell suspension.
H526 cells were grown as a suspension and maintained by addition of fresh medium, as the cell density increases, every 2 to 3 days. Every week, culture was reestablished by centrifugation of the suspension with subsequent resuspension in fresh medium at a concentration of 1×10^5 cell/mL. Each animal was subcutaneously implanted (on the right flank using 26 G needle and a 1 cc syringe) at 4-6 weeks of age with 5×10^6 H526 cells suspended in 0.05 mL of a solution consisting of 50% Matrigel® (Corning Incorporated Life Sciences) and 50% medium without serum or antibiotics.
(§2) Treatment tolerability was assessed by monitoring body weight evolution, clinical signs of systemic toxicity, as well as evidences of local damage in the injection site.
(§3) Treatments producing >20% lethality and/or 20% net body weight loss were considered toxic.

H460 tumors = conditions: iv, 0.5 mg/kg
Procedure: (§4) Female athymic nu/nu mice (Harlan Laboratories Models, S. L. Barcelona, Spain or Envigo, Spain) were utilized for all experiments. Animal were housed in individually ventilated cages Sealsafe® Plus, Techniplast S.P.A.), up to ten per cage on a 12-hour light-dark cycle at 21-23° C. and 40-60% humidity. […] Animals were acclimated for at least 5 days prior to tumor implantation with a tumor cell suspension.
H460 cells were maintained in vitro at 37° C. with 5% CO2 in Dulbecco's Modified Eagle's Medium (Sigma-Aldrich, Co). Culture cells were passaged every 3 to 5 days upon reaching confluence. Each animal was subcutaneously implanted (on the right flank using 26 G needle and a 1 cc syringe) at 4-6 weeks of age with 5×10^6 H460 cells suspended in 0.05 mL of a solution consisting of 50% Matrigel® (Corning Incorporated Life Sciences) and 50% medium without serum or antibiotics.
as §2, §3

MDA-MB-231 cells = assay: cells; conditions: Homo sapiens, MDA-MB-231, 72 h
Outline: (§1)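 SRB colorimetric readout, referenced to a time-zero fixed plate, after 72 h compound exposure over 10 to 0.003 μg/mL (ten 2/5 dilutions, 1% DMSO final, triplicates). Human lines grown in DMEM/10% FBS, plated at 5000 cells/well overnight; four-parameter logistic fitting per NCI algorithm.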

A549 cells = assay: cells; conditions: Homo sapiens, A549, 72 h
Outline: as §1

PSN1 cells = assay: cells; conditions: Homo sapiens, PSN1, 72 h
Outline: as §1

HT29 cells = assay: cells; conditions: Homo sapiens, HT-29, 72 h
Outline: as §1

A2780 tumors = conditions: A2780 xenograft
MDA-MB-231 tumors = conditions: iv, 0.5 mg/kg
Procedure: as §4
MDA-MB-231 cells were maintained in vitro at 37° C. with 5% CO2 in Dulbecco's Modified Eagle's Medium (Sigma-Aldrich, Co). Culture cells were passaged every 3 to 5 days upon reaching confluence.
as §2
In xenograft studies with other cell lines: • Tumor volume was calculated using the equation (a·b^2)/2, where a: length (longest diameter) and b: width (shortest diameter) were measured in mm by using digital caliper (Fowler Sylvac, S235PAT).
as §3

HGC27 tumors = conditions: HGC27 xenograft
Procedure: as §4
HGC27 cells were maintained in vitro at 37° C. with 5% CO2 in Iscove's Modified Dulbecco's Medium (Sigma Aldrich, Co). Culture cells were passage every 3 to 5 days on reaching confluence. Each animal was subcutaneously implanted (on the right flank using 26 G needle and a 1 cc syringe) at 4-6 weeks of age with 5×10^6 HGC-27 cells suspended in 0.05 mL of a solution consisting of 50% Matrigel® (Corning Incorporated Life Sciences), 50% medium without serum or antibiotics.
as §2, §3

`COc1c(C)cc2c(c1O)[C@@H]1[C@@H]3[C@@H]4SC[C@]5(NCCc6c5[nH]c5ccccc65)C(=O)OC[C@@H](c5c6c(c(C)c(OC(C)=O)c54)OCO6)N3[C@@H](O)[C@H](C2)N1C` [ET-736, Ecteinascidin 736] was tested, and the “Median Tumor Volume” value (H526 tumors; Table 63, Day 0) was 213.5 mm^3, the “Median Tumor Volume” value (H526 tumors; Table 63, Day 2) was 240.5 mm^3 and the “Median Tumor Volume” value (H526 tumors; Table 63, Day 4) was 97.2 mm^3. For the same compound, the “Median Tumor Volume” value (H526 tumors; Table 63, Day 7) was 48.8 mm^3, the “Median Tumor Volume” value (H526 tumors; Table 63, Day 9) was 62.5 mm^3 and the “Median Tumor Volume” value (H526 tumors; Table 63, Day 11) was 62.5 mm^3. The “Median Tumor Volume” value (H526 tumors; Table 63, Day 14) was 47.3 mm^3, the “Median Tumor Volume” value (H526 tumors; Table 63, Day 16) was 32.0 mm^3 and the “Median Tumor Volume” value (H526 tumors; Table 63, Day 21) was 4.0 mm^3. For the same compound, the “Median Tumor Volume” value (H526 tumors; Table 63, Day 28) was 4.0 mm^3, the “Median Tumor Volume” value (H526 tumors; Table 63, Day 35) was 4.0 mm^3 and the “Median Tumor Volume” value (H526 tumors; Table 63, Day 42) was 4.0 mm^3. For the same compound, the “Median Tumor Volume” value (H526 tumors; Table 63, Day 49) was 4.0 mm^3, the “Median Tumor Volume” value (H526 tumors; Table 63, Day 56) was 4.0 mm^3 and the “Median Tumor Volume” value (H526 tumors; Table 63, Day 63) was 4.0 mm^3. The “Median Tumor Volume” value (H526 tumors; Table 63, Day 70) was 4.0 mm^3, the “Median Tumor Volume” value (H526 tumors; Table 63, Day 77) was 4.0 mm^3 and the “Median Tumor Volume” value (H526 tumors; Table 63, Day 84) was 199.8 mm^3. For the same compound, the “Median Tumor Volume” value (H526 tumors; Table 63, Day 91) was 786.5 mm^3, the “Median Tumor Volume” value (H460 tumors; 0 h) was 185.8 mm^3 and the “Median Tumor Volume” value (H460 tumors; 48 h) was 457.8 mm^3. For the same compound, the “Median Tumor Volume” value (H460 tumors; 120 h) was 732.8 mm^3, the “Median Tumor Volume” value (H460 tumors; 168 h) was 930.1 mm^3 and the “Median Tumor Volume” value (H460 tumors; 336 h) was 1845.5 mm^3. The “Median Tumor Volume” value (H460 tumors; 384 h) was 2025.0 mm^3, the GI50 (MDA-MB-231 cells) was 0.0212 µM and the CC50 (MDA-MB-231 cells; read-out: LC50) was 0.0477 µM. For the same compound, the IC (TGI) (MDA-MB-231 cells; read-out: TGI) was 0.0252 µM, the GI50 (A549 cells) was 0.0225 µM and the CC50 (A549 cells; read-out: LC50) was > 0.132 µM. It also gave an IC (TGI) (A549 cells; read-out: TGI) of 0.0477 µM, a GI50 (PSN1 cells) of 0.0397 µM and a CC50 (PSN1 cells; read-out: LC50) of 0.102 µM. For the same compound, the IC (TGI) (PSN1 cells; read-out: TGI) was 0.0596 µM, the GI50 (HT29 cells) was 0.0212 µM and the CC50 (HT29 cells; read-out: LC50) was > 0.132 µM. For the same compound, the IC (TGI) (HT29 cells; read-out: TGI) was 0.0225 µM, the “Median Tumor Volume” value (A2780 tumors; Day 0) was 168.8 mm^3 and the “Median Tumor Volume” value (A2780 tumors; Day 2) was 251.2 mm^3. For the same compound, the “Median Tumor Volume” value (A2780 tumors; Day 5) was 382.6 mm^3, the “Median Tumor Volume” value (A2780 tumors; Day 7) was 676.1 mm^3 and the “Median Tumor Volume” value (A2780 tumors; Day 9) was 959.4 mm^3. For the same compound, the “Median Tumor Volume” value (A2780 tumors; Day 12) was 1241.5 mm^3, the “Median Tumor Volume” value (A2780 tumors; Day 14) was 1582.7 mm^3 and the “Median Tumor Volume” value (A2780 tumors; Day 16) was 1646.4 mm^3. For the same compound, the “Median Tumor Volume” value (A2780 tumors; Day 19) was 1845.5 mm^3, the “Median Tumor Volume” value (A2780 tumors; Day 21) was 2025.0 mm^3 and the “Median Tumor Volume” value (MDA-MB-231 tumors; 0 h) was 150.0 mm^3. For the same compound, the “Median Tumor Volume” value (MDA-MB-231 tumors; 48 h) was 237.7 mm^3, the “Median Tumor Volume” value (MDA-MB-231 tumors; 120 h) was 302.1 mm^3 and the “Median Tumor Volume” value (MDA-MB-231 tumors; 168 h) was 364.9 mm^3. The “Median Tumor Volume” value (MDA-MB-231 tumors; 336 h) was 398.3 mm^3, the “Median Tumor Volume” value (MDA-MB-231 tumors; 384 h) was 447.2 mm^3 and the “Median Tumor Volume” value (MDA-MB-231 tumors; 456 h) was 485.0 mm^3. The “Median Tumor Volume” value (MDA-MB-231 tumors; 504 h) was 536.3 mm^3, the “Median Tumor Volume” value (MDA-MB-231 tumors; 552 h) was 669.8 mm^3 and the “Median Tumor Volume” value (MDA-MB-231 tumors; 672 h) was 1046.1 mm^3. The “Median Tumor Volume” value (MDA-MB-231 tumors; 720 h) was 1315.9 mm^3, the “Median Tumor Volume” value (MDA-MB-231 tumors; 840 h) was 2007.7 mm^3 and the “Median Tumor Volume” value (HGC27 tumors; Day 0) was 195.9 mm^3. For the same compound, the “Median Tumor Volume” value (HGC27 tumors; Day 2) was 359.2 mm^3, the “Median Tumor Volume” value (HGC27 tumors; Day 5) was 537.6 mm^3 and the “Median Tumor Volume” value (HGC27 tumors; Day 7) was 553.5 mm^3. For the same compound, the “Median Tumor Volume” value (HGC27 tumors; Day 9) was 604.7 mm^3, the “Median Tumor Volume” value (HGC27 tumors; Day 12) was 627.4 mm^3 and the “Median Tumor Volume” value (HGC27 tumors; Day 14) was 648.0 mm^3. The “Median Tumor Volume” value (HGC27 tumors; Day 16) was 687.6 mm^3, the “Median Tumor Volume” value (HGC27 tumors; Day 19) was 760.0 mm^3 and the “Median Tumor Volume” value (HGC27 tumors; Day 21) was 792.4 mm^3. For the same compound, the “Median Tumor Volume” value (HGC27 tumors; Day 23) was 818.9 mm^3, the “Median Tumor Volume” value (HGC27 tumors; Day 26) was 1026.1 mm^3 and the “Median Tumor Volume” value (HGC27 tumors; Day 28) was 1354.9 mm^3.
